Where “and” joins values, the source holds several entries; their conditions need not be identical. Equal values may be shown once. Marks after values point to notes of the source that are not given here.
Assays:
[1] = EF release from the precursor activated with 0.1 N citric acid solution, headspace GC analysis; format: physicochemical; settings: for EF released: after 120 min
Method: (§1) The cumulative release of EF from the precursor was determined using an automatic headspace analysis system (FIG. 1). The system comprising of an environmental chamber (MLR-350H, Sanyo Electric Co., Ltd. Japan), a gas chromatograph (GC 6890, Agilent Technologies Inc., Santa Clara, CA, USA) equipped with a flame ionization detector (FID), stream selection valves (EMTCA-CE, VICI Valco Inst., Houston, TX, USA), 1/16 stainless steel tubing, and a control board (SRI Instruments Inc., Las Vegas, Nev., USA). The capillary column used with the GC was Agilent J&W DB-624 (Agilent Technologies Inc., Santa Clara, CA, USA) with 30 m length, 0.53 mm I.D, and 3 μm film thickness. The temperature of the detector and the oven were 200° C. and 40° C., respectively. The flow rates of N2, H2, and O2 were 30, 50, and 200 mL/min, respectively. The calibration curve was prepared by measuring standard headspace concentration of a known amount of EF. Chromatograms were analyzed using the Peak Simple software (393-32 bit, SRI Instruments, CA, USA). At any given sampling point, the total amount of EF released into the headspace (Mt, μL) was determined according to Eqs. 5 to 7 by the addition of the recorded amount (Mr, μL) and the accumulated loss (Ml, μL) of all the previous sampling points up to that point.
To activate the release of EF, two approaches were evaluated. In the first approach, 1-2 mg of the precursor was placed in a 10 mL, glass beaker inside a hermetically sealed 1 L, glass jar as shown in FIG. 1. The headspace gas was extracted through a septum attached to the jar lid at predetermined time intervals. EF release was triggered by distributing 1 mL of 0.1 N citric acid on the precursor particles using a pipette (Fisher Scientific, Ottawa, ON, Canada) just before closing the jar and attaching it to the sampling needle. The release of EF from the precursor was studied at 5, 15, and 25° C.
(§2) The release kinetics of EF from its precursor were modeled using an empirical pseudo-first order reaction kinetic model:
(§3) [formula] where Ce is the concentration of EF in the headspace of the 1 L test jar at an infinite time; C is the EF released at time, t; C0 is the EF initial concentration (which was equal to zero in our case); and k is the release rate constants. Non-linear regression analyses were conducted to fit the release data and determine the model parameters. Results and Discussion Ethyl Formate Precursor Formation

[2] = Storage stability of the precursor at 25° C. under 0, 60 and 100% RH (EF release after storage); format: physicochemical
Method: The stability of the precursor was studied over a period of 30 days. The precursor was stored at 25° C. under 0, 60, and 100% RH. An environmental chamber (MLR-350H, Sanyo Electric Co., Ltd. Japan) was used to control the humidity levels and temperature. Samples from each condition were tested for EF release at 1, 15, and 30th day at 25° C. using 0.1 N citric acid solution as described above.

[3] = system: spotted-wing Drosophila (SWD) adults; assay: Mortality of adult SWD on blueberries exposed to EF vapor released from the precursor; format: in vivo
Method: The EF precursor from Example 1 was activated using an acid-dispersed substrate (acidified substrate prepared in Example 1) and the moisture generated from fruit respiration to release EF vapor. In a model system utilized spotted-wing Drosophila (SWD), an invasive insect pest of many fruit crops, as the surrogate test organism. The mortality of adult SWD on blueberries was evaluated when they were exposed to the EF vapor released from the precursor. Different amounts of the EF precursor (2.5, 5.0, and 7.5 mg) were activated using the citric acid-dispersed substrate to release 1, 2, and 3 mg of EF, respectively, in a sealed 1 L glass jar containing 0, 20 or 40 g of blueberries and 10 adult SWD.

[4] = system: adult weevils; settings: 50-55 g/m^3 headspace concentration at 4-8° C. for 24 h, apple; cited from earlier work
[5] = system: test insects in the wheat, split faba beans and sorghum bins; settings: 85 g/t for 4 h followed by second 85 g/t treatment, unsealed metal bins; cited from earlier work
[6] = system: Rhizopus stolonifer, Colletotrichum musae, Erwinia carotovora, and Pseudomonas aeruginosa; settings: EF vapor, agar medium; cited from earlier work
[7] = system: Penicillium digitatum; settings: EF vapor 6.5-11.5 mmol/dish, agar medium; cited from earlier work
[8] = system: Saccharomyces rouxii and Saccharomyces mellis; settings: EF at 3 mL/lb on Deglet Noor dates; cited from earlier work
[9] = EF release from the precursor on citric acid-acidified nonwoven substrate at different RH, headspace GC analysis; format: physicochemical; settings: 25° C.; for Ce / k: fitted model
Method: as §1
In the second study, the release of EF was evaluated using an acidified substrate which was prepared by impregnating 0.3 mL of 5% (w/v) citric acid/anhydrous ethanol solution into a 3×3 cm spun-bound polypropylene nonwoven, followed by drying it overnight at 40° C. The precursor (1-2 mg) was then spreaded on the top of the acidified nonwoven layer and exposed to the test relative humidity maintained in a hermetically 1 L glass jar using silica gel (0% RH) or saturated salt solutions (magnesium nitrate, 53% RH; sodium chloride, 75% RH; potassium nitrate, 94% RH) (FIG. 1) (ASTM Standard E104-02 2012; Greenspan, 1977). EF release, expressed in milligram of EF per milligram of precursor per litre of headspace air, was determined using the headspace analysis system described above.
as §2, §3

[10] = Dispersion of precursor particulates in water; format: physicochemical; settings: 5 h of stirring
[11] = 25 °C, fitted pseudo-first order model, listed as A
[12] = 25 °C, fitted pseudo-first order model, listed as B

In the case of `CCOC=NNC(=O)CCCCC(=O)NN=COCC` [Precursor A, diethyl N,N′-adipoyldiformohydrazonate], the EF released ([1]; 25 °C, listed as A) is reported as 89.0 ± 1.5%, the Ce [1, 11] is reported as 0.350 ± 0.005^a mg/mg · L and the k [1, 11] is reported as 0.037 ± 0.000^a min^−1.
In the case of `CCOC=NNC(=O)CCCCC(=O)NN=COCC` [EF precursor, diethyl N,N′-adipoyldiformohydrazonate], the “changes in the amount of EF released after storage” value ([2]; stored at 0% RH, days 1, 15 and 30) is reported as “no significant (p>0.05) changes”, the “reduction in EF release” value ([2]; stored at 60% RH, after 15 days) is reported as 18% and the “reduction in EF release” value ([2]; stored at 60% RH, after 30 days) is reported as 45%. The “reduction in EF release” value ([2]; stored at 100% RH, 15 days) was 62%, the “reduction in EF release” value ([2]; stored at 100% RH, 30 days) was 81% and the mortality ([3]; after 2 h, 1 mg EF (2.5 mg precursor), 1 L jar with 40 g of blueberries) was 63%. For the same compound, the mortality ([3]; after 2 h, 1 mg EF, jars without blueberries) was 16%, the mortality ([3]; after 2 h, 3 mg EF (7.5 mg precursor), 1 L jar with 40 g of blueberries) was 96% and the mortality ([3]; after 2 h, 3 mg EF, jars without blueberries) was 60%. The mortality ([3]; at 4 h, all the concentrations) was 100%.
In the case of ethyl formate [EF], the mortality [4] is given as 100%, the insect control [5] is given as “high level of control” and the germicidal concentration [6] is given as 6.5-11.5 mmol/dish. The growth inhibition [7] was “did not show complete inhibit” and the microbial growth inhibition [8] was “able to inhibit the microbial growth”.
With `CCOC=NNC(=O)CCCCC(=O)NN=COCC` [Precursor B, diethyl N,N′-adipoyldiformohydrazonate] the Ce ([1]; 5 °C, fitted model) was 0.792 ± 0.004^c mg/mg · L, the k ([1]; 5 °C, fitted model) was 0.004 ± 0.001^d min^−1 and the Ce ([1]; 15 °C, fitted model) was 0.456 ± 0.014^a, b mg/mg · L. The k ([1]; 15 °C, fitted model) was 0.010 ± 0.000^c min^−1, the EF released ([1]; 25 °C, listed as B) was 97.9 ± 2.0% and the EF released ([1]; 25 °C, mg EF per mg precursor per L headspace) was 0.38±0.002 mg/mg · L and 0.382 ± 0.008^a mg/mg · L. The Ce [1, 12] was 0.389 ± 0.007^a, b mg/mg · L, the k [1, 12] was 0.030 ± 0.001^b min^−1 and the EF release ([9]; 0% RH, acid-dispersed substrate) was “no release was observed”. For the same compound, the Ce ([9]; 53% RH) was 0.072 ± 0.013^c mg/mg · L, the k ([9]; 53% RH) was 0.006 ± 0.001^b min^−1 and the Ce ([9]; 75% RH) was 0.200 ± 0.037^b mg/mg · L. For the same compound, the k ([9]; 75% RH) was 0.024 ± 0.004^a min^−1, the Ce ([9]; 94% RH) was 0.333 ± 0.019^a mg/mg · L and the k ([9]; 94% RH) was 0.026 ± 0.002^a min^−1. For the same compound, the “dispersibility of precursor particulates in water” value [10] was “agglomerates presisted even after 5 h of stirring”.

Source: US12655092B2, “Precursor compounds of ester compounds” (University of Guelph, priority 2019, dated 2026)
